Consider 21 compounds from patent US9255110B2 (Hoffmann-La Roche Inc., priority 2010, dated 2016).

Structures are written as SMILES. pIC50: −log10 of the molar value. Structures can show the parent of a compound that is named as a salt.

Common to all, as to assay type: biochemical
One test deals with human full length SYK (Homo sapiens (Human), UniProt P43405). Description: In vitro SYK kinase assay. The note with it: 20 uM ATP, 33P peptide phosphorylation. The protocol: Spleen tyrosine kinase (SYK) is a tyrosine kinase that plays an important role in B cell signal transduction. SYK activity is measured by phosphorylation of a peptide substrate (Biotin-[…]) with [gamma-^33P] ATP. The enzyme reaction was conducted at 20 uM ATP with 0.05 uCi [gamma-^33P]ATP (2 uCi for 40 ul assay) and 10 uM peptide substrate at final volume of 40 ul in buffer containing 50 mM Hepes, pH 7.2, 1 mM dithiothreitol, 10 mM MgCl2, 100 uM Na3VO4, 0.1% BSA and 10% DMSO. The enzyme assay was carried out with human full length SYK in the presence or absence of ten compound concentrations. SYK and compound were pre-incubated for 10 minutes. Then, the enzymatic reaction was initiated by addition of ATP and peptide substrate. The reaction mixture was incubated at room temperature for 30 minutes. At the end of incubation, the reaction was terminated by transferring 25 ul of the reaction mixture to 100 ul of 10% streptavidin slurry containing 100 mM EDTA. The reaction product was captured on the affinity resin and sequentially washed on a filtration plate (Millipore, MABVNOB50) with 2M NaCl, 2M M NaCl in 1% phosphoric acid and water to remove free radio nucleotide. Then the incorporation of ^33P into peptide substrate was quantified on a microplate scintillation counter. Compound inhibition potency on SYK was measured by IC50 value generated from ten concentration inhibition curve fitted into the 3-parameter model: % inhibition=Maximum/(1+(IC50/[Inhibitor])^slope). Data were analyzed on Microsoft Excel for parameter estimation.

The next test has as its target IRAK-4 (Homo sapiens (Human), UniProt Q9NWZ3). Nature of the test: In vitro IRAK-4 kinase assay. The note with it: purified recombinant IRAK-4, 50 uM ATP, 33P peptide phosphorylation. An outline of the steps:
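Recombinant IRAK-4 or IRAK-1 incubated with 250 uM synthetic peptide in MOPS pH7.2 kinase buffer with 50 uM ATP, 20 mM MgCl2 and γ-33P ATP for the indicated time. Phosphorylated peptide captured on phosphocellulose, washed with phosphoric acid, quantified by scintillation counting.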

A further test concerns the target IRAK-1 (Homo sapiens (Human), UniProt P51617). Description: In vitro IRAK-1 kinase assay. The note with it: purified recombinant IRAK-1, 50 uM ATP, 33P peptide phosphorylation. The protocol: Purified recombinant IRAK-4 protein was incubated with 250 uM synthetic peptide ([…]) in 30 ul of kinase buffer including (20 mM MOPS pH7.2, 25 mM beta glycerol phosphate, 5 mM EGTA, 1 mM sodium orthovanadate, 1 mM DTT, 50 uM ATP, 20 mM MgCl2, 10 uCi γ-^33P, 0.1% BSA) for the indicated time. For purified recombinant IRAK-1 protein kinase assay, 50 uM ATP was used. A 25 ul aliquot of the reaction mixture was transferred on to p81 phosphocellulose squares (Upstate Biotechnology, Lake Placid, N.Y.). The assay squares were washed three times with 0.75% phosphoric acid and once with acetone. Enzyme activity was measured by determining the bound radioactivity by liquid scintillation counting.

Chain of IRAK-4 (Q9NWZ3 whole entry, species assumed): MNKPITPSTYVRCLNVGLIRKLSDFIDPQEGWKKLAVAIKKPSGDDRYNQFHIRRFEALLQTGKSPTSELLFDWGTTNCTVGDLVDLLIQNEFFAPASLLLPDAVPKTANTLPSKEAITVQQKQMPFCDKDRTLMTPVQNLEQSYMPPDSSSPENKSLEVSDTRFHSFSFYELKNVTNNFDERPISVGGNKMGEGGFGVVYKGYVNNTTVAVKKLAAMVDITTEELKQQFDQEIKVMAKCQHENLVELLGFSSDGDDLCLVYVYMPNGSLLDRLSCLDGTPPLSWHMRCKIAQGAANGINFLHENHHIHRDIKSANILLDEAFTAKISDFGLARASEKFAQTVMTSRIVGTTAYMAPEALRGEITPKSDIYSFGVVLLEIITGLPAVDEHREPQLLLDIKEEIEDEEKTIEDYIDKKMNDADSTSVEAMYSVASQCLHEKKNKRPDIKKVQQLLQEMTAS
Chain of IRAK-1 (P51617 whole entry, species assumed): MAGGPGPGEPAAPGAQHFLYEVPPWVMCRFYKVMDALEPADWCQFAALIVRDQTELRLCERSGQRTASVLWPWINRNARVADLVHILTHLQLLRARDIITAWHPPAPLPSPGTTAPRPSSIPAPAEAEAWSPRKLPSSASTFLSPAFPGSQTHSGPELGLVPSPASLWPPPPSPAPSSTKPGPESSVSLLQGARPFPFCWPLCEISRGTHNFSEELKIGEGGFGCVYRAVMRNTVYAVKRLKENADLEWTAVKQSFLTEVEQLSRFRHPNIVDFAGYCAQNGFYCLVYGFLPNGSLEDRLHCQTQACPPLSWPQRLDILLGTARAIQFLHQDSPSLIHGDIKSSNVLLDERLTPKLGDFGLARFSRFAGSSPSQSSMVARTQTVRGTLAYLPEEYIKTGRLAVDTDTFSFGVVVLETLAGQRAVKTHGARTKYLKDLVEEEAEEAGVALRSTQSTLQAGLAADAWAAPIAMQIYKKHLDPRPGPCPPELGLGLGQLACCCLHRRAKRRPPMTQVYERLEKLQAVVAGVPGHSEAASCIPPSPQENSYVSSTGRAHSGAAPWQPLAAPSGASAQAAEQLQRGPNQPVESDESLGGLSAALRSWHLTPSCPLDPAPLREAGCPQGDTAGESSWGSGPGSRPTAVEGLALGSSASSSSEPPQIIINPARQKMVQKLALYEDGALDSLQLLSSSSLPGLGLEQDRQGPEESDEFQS

The pIC50 is the negative decadic logarithm of the IC50, by convention in mol/L. As to `O=C(Nc1cc2cccnc2cc1O[C@@H]1CC[C@H](O)C1)c1csc2cncnc12` [Example 54, hydrochloride], the pIC50 is 6.30 against human full length SYK and 6.91 at IRAK-4.
Regarding `CC(O)CC(C)Oc1cc2ncccc2cc1NC(=O)c1csc2cncnc12` (stereo not drawn), the pIC50 was 6.12 at IRAK-1, 6.35 at human full length SYK and 7.62 at IRAK-4.
As to `O=C(Nc1cc2cccnc2cc1OC1CCC(O)CC1)c1cnn2cccnc12` (stereo not drawn) [Example 23], the pIC50 is 6.99 against human full length SYK and 7.54 on IRAK-4.
Regarding `COc1cc2ncccc2cc1NC(=O)c1csc2cnc(NCCO)nc12` [Example 45, 2-(2-Hydroxy-ethylamino)-thieno[3,2-d]pyrimidine-7-carboxylic acid (7-methoxy-quinolin-6-yl)-amide], the results for the negative-log IC50 (pIC50) against human full length SYK and on IRAK-4 were 6.67 and 7.12, respectively.
With `COc1cc2ncccc2cc1NC(=O)c1csc2cnc(N[C@H](C)CO)nc12` [Example 39, 2-(2-Hydroxy-1-methyl-ethylamino)-thieno[3,2-d]pyrimidine-7-carboxylic acid (7-methoxy-quinolin-6-yl)-amide], the pIC50 at human full length SYK was 6.31; on IRAK-4, 7.20.
In the case of `COc1cc2ncccc2cc1NC(=O)c1csc2cnc(NCCN)nc12`, the pIC50 at IRAK-1 was 6.15; on human full length SYK, 7.77; on IRAK-4, 8.00.
In the case of `CC(O)C1CCN(c2ccc(Cl)cc2NC(=O)c2cnn3cccnc23)C1` (stereo not drawn) [Example 44, Pyrazolo[1,{tildeover (5)}-alpha] pyrimidine-3-carboxylic acid {5-chloro-2-[3-(1-hydroxy-ethyl)-pyrrolidin-1-yl]-phenyl}-amide], the pIC50 is 6.05 on IRAK-1 and 7.12 at IRAK-4.
Regarding `O=C(Nc1cc(Cl)ccc1O[C@H]1CC[C@H](O)CC1)c1csc2cncnc12` [Example 81, Thieno[3,2-d]pyrimidine-7-carboxylic acid [5-chloro-2-(4-hydroxy-cyclohexyloxy)-phenyl]-amide], the pIC50 was 6.22 at IRAK-1 and 6.47 at IRAK-4.
The like results for `O=C(Nc1cc(Cl)ccc1N1CCCCC1)c1cnn2cc(O)cnc12` [Example 20, 6-Hydroxy-pyrazolo[1,5-a]pyrimidine-3-carboxylic acid (5-chloro-2-piperidin-1-yl-phenyl)-amide] were, in that order, 6.19 and 7.62.
Take `O=C(Nc1cc2ccccc2cc1OC1CCC(O)CC1)c1cnn2cccnc12` (stereo not drawn) [Example 55, Pyrazolo[1,5-alpha]pyrimidine-3-carboxylic acid [3-(4-hydroxy-cyclohexyloxy)-napthalen-2-yl]-amide]: the results for the pIC50 at IRAK-1, against human full length SYK and at IRAK-4 were 6.09, 6.20 and 6.91, respectively.
In the case of `O=C(Nc1cc(Cl)ccc1OC1CCC(O)CC1)c1cnn2cccnc12` (stereo not drawn) [Example 90, Pyrazolo[1,5-alpha]pyrimidine-3-carboxylic acid [5-chloro-2-(4-hydroxy-cyclohexyloxy)-phenyl]-amide], the figures for the pIC50 against human full length SYK and at IRAK-4 were 6.09 and 6.34, respectively.
As to `COc1ccc(Cl)cc1NC(=O)c1csc2cnc(NCCN)nc12` [Example 53], the pIC50 at IRAK-1 was 6.09; at human full length SYK it was 6.46; at IRAK-4, 6.97.
With `NC(=O)C1CCN(c2ccc(Cl)cc2NC(=O)c2cnn3cccnc23)CC1` [Example 40, Pyrazolo[1,5-alpha]pyrimidine-3-carboxylic acid [2-(4-carbamoyl-piperidin-1-yl)-5-chloro-phenyl]-amide], the negative logarithm of the IC50 (pIC50) against human full length SYK is 6.30; on IRAK-4, 7.16.
As to `CN(C)CC1CCN(c2ccc(Cl)cc2NC(=O)c2cnn3cc(O)cnc23)CC1` [Example 37, 6-Hydroxy-pyrazolo[1,5-alpha]pyrimidine-3-carboxylic acid [5-chloro-2-(4-dimethyl-aminomethyl-piperidin-1-yl)-phenyl]-amide], the results for the pIC50 on IRAK-1 and at IRAK-4 were 6.51 and 7.28, respectively.
As for `COc1cc2ncccc2cc1NC(=O)c1csc2cc(CO)cnc12` [Example 30, 6-Hydroxymethyl-thieno[3,{tildeover (2)}beta] pyridine-3-carboxylic acid (7-methoxy-quinolin-6-yl)-amide], the negative-log IC50 (pIC50) against human full length SYK was 6.13; on IRAK-4 it was 7.46.
Consider `COc1cc2ncccc2cc1NC(=O)c1csc2cnc(NCC(O)CO)nc12` (stereo not drawn) [Example 47, 2-(2,3-Dihydroxy-propylamino)-thieno[3,2-d]pyrimidine-7-carboxylic acid (7-methoxy-quinolin-6-yl)-amide], for which the values for the pIC50 at IRAK-1 and at IRAK-4 were 6.22 and 7.09, respectively.
For the compound `NCC1CCN(c2ccc(Cl)cc2NC(=O)c2csc3cncnc23)CC1` [Example 64, Thieno[3,2-d]pyrimidine-7-carboxylic acid [2-(4-aminomethyl-piperidin-1-yl)-5-chloro-phenyl]-amide], the pIC50 at IRAK-1 is 6.10; at IRAK-4 it was 6.78.
Regarding `NCCCOc1cc2ncccc2cc1NC(=O)c1csc2cncnc12` [Example 51, Thieno[3,2-d]pyrimidine-7-carboxylic acid [7-(3-amino-propoxy)-quinolin-6-yl]-amide], the pIC50 at IRAK-1 was 6.28; on human full length SYK, 6.42; at IRAK-4, 6.99.
As to `COc1cc2ncccc2cc1NC(=O)c1csc2cnc(NC3CC3)nc12` [Example 43, 2-Cyclopropylamino-thieno[3,2-d]pyrimidine-7-carboxylic acid (7-methoxy-quinolin-6-yl)-amide], the negative-log IC50 (pIC50) at IRAK-1 was 6.24; at human full length SYK it was 6.09; on IRAK-4, 7.13.
For the compound `O=C1Cc2cc(N3CCC(CO)CC3)c(NC(=O)c3cnn4cccnc34)cc2N1` [Example 34, Pyrazolo[1,5-alpha]pyrimidine-3-carboxylic acid [5-(4-hydroxymethyl-piperidin-1-yl)-2-oxo-2,3-dihydro-1H-indol-6-yl]-amide], the negative logarithm of the IC50 (pIC50) was 6.32 on human full length SYK and 7.31 on IRAK-4.
`O=C(Nc1cc(Cl)ccc1OC1CCC(O)C1)c1cnn2cccnc12` (stereo not drawn) [Example 83, Pyrazolo[1,5-alpha]pyrimidine-3-carboxylic acid [5-chloro-2-(3-hydroxy-cyclopentyloxy)-phenyl]-amide]: the pIC50 at human full length SYK is 6.18; at IRAK-4, 6.44.
